The results in this text go back to patent publication US20250368666A1, “INDAZOLE COMPOUNDS” (TYRA BIOSCIENCES, INC., priority 2022, published 2025).

For orientation: Kd means the free concentration of one partner at which half of the binding sites on the other are occupied at equilibrium, for simple one-to-one binding. In general, IC50 refers to the concentration that inhibits the measured activity by half. A higher IC50 goes with weaker potency in that assay.

One experiment addresses T1, FGFR2 (Homo sapiens, UniProt P21802).
T1 construct: made in house; host or cells: E. coli (BL21-derived), T7 phage
Kind of experiment: Kinase binding assay (kinase-tagged T7 phage, affinity beads, qPCR), Kd. As to conditions: read-out: FGFR2 (Kd nM). The procedure, abridged:
(§1)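 Readout was qPCR of kinase eluted from ligand-coated affinity beads after competition with test compound. Kinases were expressed as T7 phage fusions in E. coli. Binding constants were derived by non-linear least-squares Hill fitting, Hill slope −1.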
In general terms: In qPCR the cycle at which signal appears reflects the starting amount.

A further experiment has as its target T2, FGFR3 (Homo sapiens, UniProt P22607).
T2 construct: made in house; host or cells: E. coli (BL21-derived), T7 phage
Described as above. The following applies: read-out: FGFR3 (Kd nM). The procedure, abridged: as §1

The target in another experiment is T3, FGFR3 (V555M) (Homo sapiens, UniProt P22607, V555M).
T3 construct: made in house; host or cells: E. coli (BL21-derived), T7 phage
T3 sequence (P22607 23-806 V555M): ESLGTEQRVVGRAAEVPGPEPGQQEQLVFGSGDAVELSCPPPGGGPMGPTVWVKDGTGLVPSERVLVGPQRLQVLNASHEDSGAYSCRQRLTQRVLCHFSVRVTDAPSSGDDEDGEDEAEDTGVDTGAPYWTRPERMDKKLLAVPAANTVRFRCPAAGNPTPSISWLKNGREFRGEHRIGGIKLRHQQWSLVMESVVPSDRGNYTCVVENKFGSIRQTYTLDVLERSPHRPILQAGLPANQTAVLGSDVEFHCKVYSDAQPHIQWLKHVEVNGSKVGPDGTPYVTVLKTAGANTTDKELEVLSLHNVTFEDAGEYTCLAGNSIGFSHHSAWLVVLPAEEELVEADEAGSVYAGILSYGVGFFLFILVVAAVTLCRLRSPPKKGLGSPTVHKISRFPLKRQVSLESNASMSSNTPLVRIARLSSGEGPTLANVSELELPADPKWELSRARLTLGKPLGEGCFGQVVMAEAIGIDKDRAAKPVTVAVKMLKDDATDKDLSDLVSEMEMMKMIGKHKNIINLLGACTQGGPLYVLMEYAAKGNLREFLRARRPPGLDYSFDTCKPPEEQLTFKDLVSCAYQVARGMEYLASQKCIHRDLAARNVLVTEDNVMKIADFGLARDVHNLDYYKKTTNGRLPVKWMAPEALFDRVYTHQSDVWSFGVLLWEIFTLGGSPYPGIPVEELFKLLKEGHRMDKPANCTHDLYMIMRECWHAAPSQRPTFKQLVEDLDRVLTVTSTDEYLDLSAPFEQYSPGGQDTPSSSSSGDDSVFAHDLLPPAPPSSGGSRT
The description is as above. As to conditions: V555M mutant; read-out: FGFR3 (V555M) (Kd nM). The method in brief:
as §1

The next experiment deals with T4, FGFR4 (Homo sapiens, UniProt P22455).
T4 construct: made in house; host or cells: E. coli (BL21-derived), T7 phage
T4 sequence (P22455 22-802): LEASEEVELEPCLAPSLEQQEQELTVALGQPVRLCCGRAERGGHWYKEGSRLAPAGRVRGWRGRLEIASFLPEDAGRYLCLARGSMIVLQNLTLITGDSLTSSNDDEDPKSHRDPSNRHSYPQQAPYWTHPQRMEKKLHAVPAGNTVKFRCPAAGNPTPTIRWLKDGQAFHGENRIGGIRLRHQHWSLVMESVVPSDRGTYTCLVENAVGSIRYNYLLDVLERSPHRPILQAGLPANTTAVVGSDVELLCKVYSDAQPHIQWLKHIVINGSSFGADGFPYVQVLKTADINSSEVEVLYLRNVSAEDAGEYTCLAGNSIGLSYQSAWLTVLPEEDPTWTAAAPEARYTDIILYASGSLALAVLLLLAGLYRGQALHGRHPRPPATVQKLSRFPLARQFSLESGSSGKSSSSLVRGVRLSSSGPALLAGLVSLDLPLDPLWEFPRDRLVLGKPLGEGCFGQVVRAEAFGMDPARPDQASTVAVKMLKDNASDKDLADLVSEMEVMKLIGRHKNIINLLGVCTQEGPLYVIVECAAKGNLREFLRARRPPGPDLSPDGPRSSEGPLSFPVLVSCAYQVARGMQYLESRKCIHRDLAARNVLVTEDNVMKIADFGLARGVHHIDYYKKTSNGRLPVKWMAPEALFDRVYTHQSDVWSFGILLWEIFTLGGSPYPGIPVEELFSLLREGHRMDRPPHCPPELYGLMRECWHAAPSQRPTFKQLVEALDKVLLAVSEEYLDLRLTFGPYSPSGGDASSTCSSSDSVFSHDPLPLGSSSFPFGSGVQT
The description is as above. As to conditions: read-out: FGFR4 (Kd nM). The procedure, abridged: as §1

The next experiment deals with T5, FGFR1 (Homo sapiens, UniProt P11362).
T5 construct: made in house; host or cells: E. coli (BL21-derived), T7 phage
T5 sequence (P11362 22-822): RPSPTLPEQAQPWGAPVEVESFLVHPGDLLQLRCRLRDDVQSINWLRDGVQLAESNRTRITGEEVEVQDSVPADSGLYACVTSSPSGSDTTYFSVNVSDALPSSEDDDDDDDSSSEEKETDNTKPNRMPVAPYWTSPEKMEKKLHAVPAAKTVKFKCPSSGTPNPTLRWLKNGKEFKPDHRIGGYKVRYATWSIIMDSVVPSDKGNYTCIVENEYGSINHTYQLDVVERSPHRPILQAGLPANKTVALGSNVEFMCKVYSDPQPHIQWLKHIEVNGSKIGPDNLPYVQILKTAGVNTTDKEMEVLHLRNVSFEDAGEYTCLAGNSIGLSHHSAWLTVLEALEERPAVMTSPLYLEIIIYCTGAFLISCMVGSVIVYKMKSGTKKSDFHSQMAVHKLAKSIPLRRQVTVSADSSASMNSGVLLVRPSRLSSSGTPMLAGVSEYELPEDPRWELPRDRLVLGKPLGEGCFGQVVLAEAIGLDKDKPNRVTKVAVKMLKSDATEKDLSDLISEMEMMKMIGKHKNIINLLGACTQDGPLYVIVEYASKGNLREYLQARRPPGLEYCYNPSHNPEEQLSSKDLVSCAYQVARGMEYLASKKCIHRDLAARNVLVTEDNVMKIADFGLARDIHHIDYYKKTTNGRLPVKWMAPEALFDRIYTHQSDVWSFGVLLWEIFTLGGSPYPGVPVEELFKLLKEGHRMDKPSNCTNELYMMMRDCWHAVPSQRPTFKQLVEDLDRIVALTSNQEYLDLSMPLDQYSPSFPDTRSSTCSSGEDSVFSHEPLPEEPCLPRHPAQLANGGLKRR
The description is as above. As to conditions: read-out: FGFR1 (Kd nM). The method in brief: as §1

Experiment [1] has as its system KATO-III cell line (FGFR2 amplification). Kind of experiment: Cancer cell line cell viability assay (Cell Titer-Glo), 72 hr. Type of experiment: cell-based. As to conditions: Homo sapiens, KATO III. The method in brief:
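Following overnight attachment, each line receives compound in triplicate across nine 4-fold dilutions starting at 3 μM, with DMSO backfill for equal solvent. Luminescence after Cell Titer-Glo 2.0 addition gives percent viability versus DMSO control, fitted by 4-parameter logistic for IC50.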
In general terms: ATP-based viability assays read luminescence as a measure of living cells.

Experiment [2] deals with KG-1 cell line (FGFR 1-fusion). The experiment is described as above. Type of experiment: cell-based. As to conditions: Homo sapiens, KG-1, KG-1 cell line (FGFR1-fusion). The procedure, abridged:
(§2)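 Intracellular ATP was measured by Cell Titer-Glo 2.0 luminescence after cells were incubated with compound dilutions (top 3 μM, 4-fold, 9 doses). Values were expressed relative to DMSO-treated cells and IC50 was calculated from a variable-slope dose-response curve.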

Experiment [3] relates to RT112/84 cell line (FGFR3-fusion). The description is as above. The experiment is classed as cell-based. As to conditions: Homo sapiens, RT112/84, RT112/84 cell line (FGFR3-fusion). The method in brief:
as §2

The subject of experiment [4] is HuH7 cell line (FGF19 amplification). Kind of experiment: Cancer cell line cell viability assay (Cell Titer-Glo), 120 hr. As to conditions: Homo sapiens, Huh-7. Type of experiment: cell-based. The method in brief:
as §2

T2 sequence (P22607 23-806): as the sequence (P22607 23-806 V555M) above, with M533V counted along it
T1 sequence (P21802 22-821): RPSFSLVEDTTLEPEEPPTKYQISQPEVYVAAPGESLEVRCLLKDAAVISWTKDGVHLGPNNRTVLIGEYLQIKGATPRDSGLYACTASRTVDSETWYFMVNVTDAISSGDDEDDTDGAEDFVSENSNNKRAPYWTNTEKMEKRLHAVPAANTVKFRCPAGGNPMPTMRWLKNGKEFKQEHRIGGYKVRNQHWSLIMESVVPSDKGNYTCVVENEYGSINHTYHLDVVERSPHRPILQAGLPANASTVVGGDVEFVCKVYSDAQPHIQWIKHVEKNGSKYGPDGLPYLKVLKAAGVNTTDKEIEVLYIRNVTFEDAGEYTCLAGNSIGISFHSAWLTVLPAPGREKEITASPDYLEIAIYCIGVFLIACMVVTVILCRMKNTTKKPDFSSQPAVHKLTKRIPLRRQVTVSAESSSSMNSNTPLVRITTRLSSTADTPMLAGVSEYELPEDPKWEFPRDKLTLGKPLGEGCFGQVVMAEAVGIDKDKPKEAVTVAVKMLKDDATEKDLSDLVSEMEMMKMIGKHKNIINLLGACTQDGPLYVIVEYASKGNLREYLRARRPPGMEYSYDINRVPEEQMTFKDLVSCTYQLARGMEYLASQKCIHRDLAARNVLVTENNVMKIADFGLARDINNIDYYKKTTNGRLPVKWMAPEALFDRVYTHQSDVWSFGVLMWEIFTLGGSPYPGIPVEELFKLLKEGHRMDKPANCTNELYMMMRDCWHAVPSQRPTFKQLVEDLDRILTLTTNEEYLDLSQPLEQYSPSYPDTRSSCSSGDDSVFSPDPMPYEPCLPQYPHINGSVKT

Turning to `C[C@@H](Oc1ccc2[nH]nc(-c3cnc(N4CC(C)(NC5COC5)C4)c(C#N)c3)c2c1)c1c(Cl)cncc1Cl` [Example 4, (R)-5-(5-(1-(3,5-dichloropyridin-4-yl)ethoxy)-1H-indazol-3-yl)-2-(3-methyl-3-(oxetan-3-ylamino)azetidin-1-yl)nicotinonitrile], the Kd on FGFR2 is 50 to 300 nM; at FGFR3 it was 1 to 50 nM; on FGFR3 (V555M), 1 to 50 nM; on FGFR4 it was 1 to 50 nM; on FGFR1, 50 to 300 nM. Further, the IC50 fell in the range of 200 to 1000 nM in [1], 200 to 1000 nM in experiment [2], 50 to 200 nM in experiment [3] and 0.1 to 50 nM in experiment [4].

As for `C[C@@H](Oc1ccc2[nH]nc(-c3cnc(N4CC(C)(NC5CS(=O)(=O)C5)C4)c(C#N)c3)c2c1)c1c(Cl)cncc1Cl` [Example 7, (R)-5-(5-(1-(3,5-dichloropyridin-4-yl)ethoxy)-1H-indazol-3-yl)-2-(3-((1,1-dioxidothietan-3-yl)amino)-3-methylazetidin-1-yl)nicotinonitrile], the Kd on FGFR2 was 50 to 300 nM; at FGFR3, 1 to 50 nM; at FGFR3 (V555M), 1 to 50 nM; on FGFR4, 1 to 50 nM; on FGFR1, 50 to 300 nM. In addition, the IC50 in experiment [1] lay within 50 to 200 nM; in experiment [2], 200 to 1000 nM; in experiment [3] it was 0.1 to 50 nM; in experiment [4], 0.1 to 50 nM.

On to `COc1cc2[nH]nc(-c3cnc(N4CC(C)(N(C)C)C4)c(C#N)c3)c2cc1O[C@H](C)c1c(Cl)cncc1Cl` [Example 10, 5-[5-[(1R)-1-(3,5-dichloro-4-pyridyl)ethoxy]-6-methoxy-1H-indazol-3-yl]-2-[3-(dimethylamino)-3-methyl-azetidin-1-yl]pyridine-3-carbonitrile], for which the Kd at FGFR2, at FGFR3, on FGFR3 (V555M), on FGFR4 and at FGFR1 was 1 to 50 nM each time. Besides, the IC50 in experiment [1] was 50 to 200 nM; in [2], 50 to 200 nM; in experiment [3], 0.1 to 50 nM; in experiment [4], 0.1 to 50 nM.

In the case of `COc1cc2[nH]nc(-c3cnc(N4CC(C)(N5CCCC5)C4)c(C#N)c3)c2cc1O[C@H](C)c1c(Cl)cncc1Cl` [Example 15, 5-[5-[(1R)-1-(3,5-dichloro-4-pyridyl)ethoxy]-6-methoxy-1H-indazol-3-yl]-2-(3-methyl-3-pyrrolidin-1-yl-azetidin-1-yl)pyridine-3-carbonitrile], the equilibrium dissociation constant (Kd) at FGFR2, on FGFR3, on FGFR3 (V555M), on FGFR4 and on FGFR1 was 1 to 50 nM each time. For the same molecule, the 50% inhibitory concentration (IC50) in [1] fell in the range of 50 to 200 nM; in [2], 50 to 200 nM; in experiment [3] it was 0.1 to 50 nM; in [4], 0.1 to 50 nM.

Take `C[C@@H](Oc1ccc2[nH]nc(-c3cnc(N4CC(C)(N5CCCC5)C4)c(C#N)c3)c2c1)c1c(Cl)cncc1Cl` [Example 17, (R)-5-(5-(1-(3,5-Dichloropyridin-4-yl)ethoxy)-1H-indazol-3-yl)-2-(3-methyl-3-(pyrrolidin-1-yl)azetidin-1-yl)nicotinonitrile]: the Kd at FGFR2, at FGFR3, on FGFR3 (V555M), at FGFR4 and at FGFR1 was 1 to 50 nM each time. The concentration for half-maximal inhibition (IC50) in experiment [1] lay in the range of 200 to 1000 nM; in experiment [2] it was 200 to 1000 nM; in experiment [3] it was 50 to 200 nM; in experiment [4], 0.1 to 50 nM.

Turning to `Cc1ncc(Cl)c([C@@H](C)Oc2ccc3[nH]nc(-c4cnc(N5CC(C)(NC6CCC6)C5)c(C#N)c4)c3c2)c1Cl` [Example 19, 2-[3-(cyclobutylamino)-3-methyl-azetidin-1-yl]-5-[5-[(1R)-1-(3,5-dichloro-2-methyl-4-pyridyl)ethoxy]-1H-indazol-3-yl]pyridine-3-carbonitrile], the dissociation constant (Kd) at FGFR2 was in the range of 300 to 1000 nM; at FGFR3 it was 1 to 50 nM; at FGFR3 (V555M) it was 1 to 50 nM; at FGFR4 it was 1 to 50 nM; at FGFR1 it was 50 to 300 nM. Also, the IC50 in experiment [1] was above 1000 nM; in experiment [2] it was 200 to 1000 nM; in experiment [3] it was 200 to 1000 nM; in [4], 0.1 to 50 nM.

Take `C[C@@H](Oc1ccc2[nH]nc(-c3cnc(N4CC(C)(N[C@H]5CCOC5)C4)c(C#N)c3)c2c1)c1c(Cl)cncc1Cl` [Example 20, 5-(5-((R)-1-(3,5-dichloropyridin-4-yl)ethoxy)-1H-indazol-3-yl)-2-(3-methyl-3-(((S)-tetrahydrofuran-3-yl)amino)azetidin-1-yl)nicotinonitrile]: the Kd on FGFR2, on FGFR3, on FGFR3 (V555M), on FGFR4 and at FGFR1 was 1 to 50 nM throughout. The IC50 was 50 to 200 nM in experiment [1], 200 to 1000 nM in experiment [2], 50 to 200 nM in [3] and 0.1 to 50 nM in [4].

Turning to `C[C@@H](Oc1ccc2[nH]nc(-c3cnc(N4CC(C)(NCCC(F)F)C4)c(C#N)c3)c2c1)c1c(Cl)cncc1Cl` [Example 21, (R)-5-(5-(1-(3,5-dichloropyridin-4-yl)ethoxy)-1H-indazol-3-yl)-2-(3-((3,3-difluoropropyl)amino)-3-methylazetidin-1-yl)nicotinonitrile], the Kd on FGFR2 is 50 to 300 nM; at FGFR3 it was 1 to 50 nM; at FGFR3 (V555M), 1 to 50 nM; at FGFR4 it was 1 to 50 nM; at FGFR1, 50 to 300 nM. Besides, the IC50 in experiment [1] fell in the range of 200 to 1000 nM; in [2] it was 200 to 1000 nM; in experiment [3] it was 50 to 200 nM; in experiment [4], 50 to 200 nM.

Regarding `COc1cc2[nH]nc(-c3cnc(N4CC(N)(CC=C(C)C)C4)c(C#N)c3)c2cc1O[C@H](C)c1c(Cl)cncc1Cl` [Example 363, (R)-2-(3-amino-3-(3-methylbut-2-en-1-yl)azetidin-1-yl)-5-(5-(1-(3,5-dichloropyridin-4-yl)ethoxy)-6-methoxy-1H-indazol-3-yl)nicotinonitrile], the Kd on FGFR2, at FGFR3, on FGFR4 and at FGFR1 was 1 to 50 nM in each case. The IC50 in [1] lay within 50 to 200 nM; in experiment [2], 200 to 1000 nM; in [3] it was 0.1 to 50 nM; in experiment [4] it was 0.1 to 50 nM.

Regarding `COc1cc2[nH]nc(-c3cnc(N4CC(N)(CCS(C)(=O)=O)C4)c(C#N)c3)c2cc1O[C@H](C)c1c(Cl)cncc1Cl` [Example 364, (R)-2-(3-amino-3-(2-(methylsulfonyl)ethyl)azetidin-1-yl)-5-(5-(1-(3,5-dichloropyridin-4-yl)ethoxy)-6-methoxy-1H-indazol-3-yl)nicotinonitrile], the Kd at FGFR2, at FGFR3, on FGFR4 and on FGFR1 was 1 to 50 nM each time. The IC50 in [1] was 50 to 200 nM; in experiment [2], above 1000 nM; in experiment [3] it was 50 to 200 nM; in experiment [4], 0.1 to 50 nM.

On to `CCC1(N)CN(c2ncc(-c3n[nH]c4cc(OC)c(O[C@H](C)c5c(Cl)cncc5Cl)cc34)cc2C#N)C1` [Example 365, 2-(3-amino-3-ethyl-azetidin-1-yl)-5-[5-[(1R)-1-(3,5-dichloro-4-pyridyl)ethoxy]-6-methoxy-1H-indazol-3-yl]pyridine-3-carbonitrile], for which the Kd on FGFR2, on FGFR3, at FGFR4 and on FGFR1 was 1 to 50 nM throughout. The IC50 lay within 50 to 200 nM in [1], 0.1 to 50 nM in [2], 0.1 to 50 nM in experiment [3] and 0.1 to 50 nM in experiment [4].
